The record followed here is patent publication US12421279B2, “Cyclic peptide antiviral agents and methods using same” (priority 2016, dated 2025).

For orientation: IC50 means the concentration that inhibits the measured activity by half.

This test relates to HIV-1Bal.01.
The mark [1] stands for this setting: read-out: HIV-1Bal.01 infection inhibition IC50, HIV-1Bal.01 pseudovirus, HOS.T4.R5 cells.
Setting [2] is: read-out: HIV-1 IC50, HIV-1Bal.01 infection inhibition, Table 1.

Each structure is given as a SMILES string. Like-named read-outs stand apart in the source and are kept apart here. *1 amine or outer side, *2 acyl side, *3 side chain or, on linkers, in order; H or OH if unused. Where a SMILES comes first, the peptide text is derived from it. Bridges are numbered along the chain shown (N, C = ends). [ ]: non-standard residue; d: D form. X11 = Cc1ccc(Cc2cn([C@H]3C[C@@H](C(=O)[*:2])N([*:1])C3)nn2)c(C)c1; X19 = Cc1cc(C)cc(Cc2cn([C@H]3C[C@@H](C(=O)[*:2])N([*:1])C3)nn2)c1; X4 = O=C([C@@H]1C[C@H](n2cc(C3C4CC5CC(C4)CC3C5)nn2)CN1[*:1])[*:2]; X12 = O=C([C@@H]1C[C@H](n2cc(Cc3ccc(Cl)c(F)c3)nn2)CN1[*:1])[*:2]; X20 = Cc1ccc(Cc2cn([C@H]3C[C@@H](C(=O)[*:2])N([*:1])C3)nn2)cc1C; X10 = Cc1ccc(Cc2cn([C@H]3C[C@@H](C(=O)[*:2])N([*:1])C3)nn2)cc1; X7 = Cc1cccc(Cc2cn([C@H]3C[C@@H](C(=O)[*:2])N([*:1])C3)nn2)c1; X3 = Cc1ccccc1Cc1cn([C@H]2C[C@@H](C(=O)[*:2])N([*:1])C2)nn1; X5 = O=C([C@@H]1C[C@H](n2cc(Cc3ccc(I)cc3)nn2)CN1[*:1])[*:2]; X14 = O=C([C@@H]1C[C@H](n2cc(Cc3ccccc3)nn2)CN1[*:1])[*:2]

With `CC[C@H](C)[C@@H]1NC(=O)[C@H](CC(N)=O)NC(=O)[C@@H](N)CC(=O)NCCCC[C@@H](C(N)=O)NC(=O)[C@H](Cc2c[nH]c3ccccc23)NC(=O)[C@@H]2C[C@H](n3cc(Cc4ccc(C)cc4)nn3)CN2C1=O` [cPT 24] (H-DNI[X10]WK-NH2; lactam 1-6 (inferred); N-terminus and C-terminus assumed), the IC50 by setting is: under setting [1], roughly 180 nM; under setting [2], 180 ± 9 nM.
On to `CC[C@H](C)[C@@H]1NC(=O)[C@H](CC(N)=O)NC(=O)[C@@H](N)CC(=O)NCCCC[C@@H](C(N)=O)NC(=O)[C@H](Cc2c[nH]c3ccccc23)NC(=O)[C@@H]2C[C@H](n3cc(Cc4ccccc4C)nn3)CN2C1=O` [cPT 25] (H-DNI[X3]WK-NH2; lactam 1-6 (inferred); N-terminus and C-terminus assumed), for which the half-maximal inhibitory concentration (IC50) is roughly 5100 nM under setting [1] and 5100 ± 220 nM under setting [2].
For the compound `CC[C@H](C)[C@@H]1NC(=O)[C@H](CC(N)=O)NC(=O)[C@@H](N)CC(=O)NCCCC[C@@H](C(N)=O)NC(=O)[C@H](Cc2c[nH]c3ccccc23)NC(=O)[C@@H]2C[C@H](n3cc(Cc4cccc(C)c4)nn3)CN2C1=O` [cPT 26] (H-DNI[X7]WK-NH2; lactam 1-6 (inferred); N-terminus and C-terminus assumed), the IC50 runs as follows: under setting [1], roughly 220 nM; under setting [2], 220 ± 42 nM.
For the compound `CC[C@H](C)[C@@H]1NC(=O)[C@H](CC(N)=O)NC(=O)[C@@H](N)CC(=O)NCCCC[C@@H](C(N)=O)NC(=O)[C@H](Cc2c[nH]c3ccccc23)NC(=O)[C@@H]2C[C@H](n3cc(Cc4ccc(C)cc4C)nn3)CN2C1=O` [cPT 27] (H-DNI[X11]WK-NH2; lactam 1-6 (inferred); N-terminus and C-terminus assumed), the half-maximal inhibitory concentration (IC50) reads like this: under setting [1], roughly 302 nM; under setting [2], 302 ± 50 nM.
In the case of `CC[C@H](C)[C@@H]1NC(=O)[C@H](CC(N)=O)NC(=O)[C@@H](N)CC(=O)NCCCC[C@@H](C(N)=O)NC(=O)[C@H](Cc2c[nH]c3ccccc23)NC(=O)[C@@H]2C[C@H](n3cc(Cc4cc(C)cc(C)c4)nn3)CN2C1=O` [cPT 28] (H-DNI[X19]WK-NH2; lactam 1-6 (inferred); N-terminus and C-terminus assumed), the 50% inhibitory concentration (IC50) under setting [1] is 2000 nM.
In the case of `CC[C@H](C)[C@@H]1NC(=O)[C@H](CC(N)=O)NC(=O)[C@@H](N)CC(=O)NCCCC[C@@H](C(N)=O)NC(=O)[C@H](Cc2c[nH]c3ccccc23)NC(=O)[C@@H]2C[C@H](n3cc(Cc4ccc(C)c(C)c4)nn3)CN2C1=O` [cPT 29] (H-DNI[X20]WK-NH2; lactam 1-6 (inferred); N-terminus and C-terminus assumed), under setting [1], the IC50 turned out to be 8000 nM.
Take `CC[C@H](C)[C@@H]1NC(=O)[C@H](CC(N)=O)NC(=O)[C@@H](N)CC(=O)NCCCC[C@@H](C(N)=O)NC(=O)[C@H](Cc2c[nH]c3ccccc23)NC(=O)[C@@H]2C[C@H](n3cc(Cc4ccc(Cl)c(F)c4)nn3)CN2C1=O` [cPT 32] (H-DNI[X12]WK-NH2; lactam 1-6): the 50% inhibitory concentration (IC50) by setting is: under setting [1], roughly 7300 nM; under setting [2], 7300 ± 740 nM.
With `CC[C@H](C)[C@@H]1NC(=O)[C@H](CC(N)=O)NC(=O)[C@@H](N)CC(=O)NCCCC[C@@H](C(N)=O)NC(=O)[C@H](Cc2c[nH]c3ccccc23)NC(=O)[C@@H]2C[C@H](n3cc(Cc4ccc(I)cc4)nn3)CN2C1=O` [cPT 33] (H-DNI[X5]WK-NH2; lactam 1-6), the 50% inhibitory concentration (IC50) is, setting by setting: under setting [1], roughly 6000 nM; under setting [2], 6000 ± 450 nM.
For `CC[C@H](C)[C@@H]1NC(=O)[C@H](CC(N)=O)NC(=O)[C@@H](N)CC(=O)NCCCC[C@@H](C(N)=O)NC(=O)[C@H](Cc2c[nH]c3ccccc23)NC(=O)[C@@H]2C[C@H](n3cc(C4C5CC6CC(C5)CC4C6)nn3)CN2C1=O` (stereo partly drawn) [compound 18] (H-DNI[X4]WK-NH2; lactam 1-6) the same measures were roughly 1300 nM and 1400 ± 200 nM.
`CC[C@H](C)[C@@H]1NC(=O)[C@H](CC(N)=O)NC(=O)[C@@H](N)CC(=O)NCCCC[C@@H](C(N)=O)NC(=O)[C@H](Cc2c[nH]c3ccccc23)NC(=O)[C@@H]2C[C@H](n3cc(Cc4ccccc4)nn3)CN2C1=O` [compound 19] (H-DNI[X14]WK-NH2; lactam 1-6): the concentration for half-maximal inhibition (IC50) was roughly 438 nM under setting [1] and 438 ± 12 nM under setting [2].
